Results published in patent US5476966A, “Method for depletion of glutathione” (Cornell Research Foundation, Inc., priority 1995, dated 1995).

Legend:
[1] = system: B16 melanomas; conditions: cited from earlier work
[2] = system: human ovarian tumor cells; conditions: grown in nude mice; cited from earlier work
[3] = target: T1, γ-Glutamylcysteine Synthetase (Rattus norvegicus, UniProt P19468); experiment: Inhibition of γ-glutamylcysteine synthetase (preincubation assay); assay type: biochemical; conditions: 30 min preincubation, 22° C.; read-out: Kiapp; Concentration for 50% Inhibition
T1 construct: Rat kidney γ-Glutamylcysteine synthetase was purified from Sprague Dawley (Taconic Farms) rats; from tissue; host or cells: rat kidney (Sprague Dawley, Taconic Farms)
T1 sequence (P19468 1-637): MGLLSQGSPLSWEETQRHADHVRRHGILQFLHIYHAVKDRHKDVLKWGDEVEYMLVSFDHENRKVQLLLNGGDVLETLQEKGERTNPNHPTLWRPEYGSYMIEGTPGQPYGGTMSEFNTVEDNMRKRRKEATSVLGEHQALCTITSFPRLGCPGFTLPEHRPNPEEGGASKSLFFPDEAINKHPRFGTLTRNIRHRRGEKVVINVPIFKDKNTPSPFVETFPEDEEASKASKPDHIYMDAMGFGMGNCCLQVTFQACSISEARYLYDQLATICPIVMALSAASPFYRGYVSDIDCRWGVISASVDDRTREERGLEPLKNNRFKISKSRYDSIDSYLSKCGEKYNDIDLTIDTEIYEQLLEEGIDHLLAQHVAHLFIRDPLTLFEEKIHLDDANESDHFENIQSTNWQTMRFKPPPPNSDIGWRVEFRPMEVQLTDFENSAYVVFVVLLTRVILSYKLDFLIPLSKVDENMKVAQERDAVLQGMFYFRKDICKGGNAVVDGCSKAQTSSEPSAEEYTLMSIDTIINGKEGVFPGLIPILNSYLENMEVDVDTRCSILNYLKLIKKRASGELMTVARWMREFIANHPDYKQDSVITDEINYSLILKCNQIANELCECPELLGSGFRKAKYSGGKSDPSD
T1 sequence (P48508 1-274 partner): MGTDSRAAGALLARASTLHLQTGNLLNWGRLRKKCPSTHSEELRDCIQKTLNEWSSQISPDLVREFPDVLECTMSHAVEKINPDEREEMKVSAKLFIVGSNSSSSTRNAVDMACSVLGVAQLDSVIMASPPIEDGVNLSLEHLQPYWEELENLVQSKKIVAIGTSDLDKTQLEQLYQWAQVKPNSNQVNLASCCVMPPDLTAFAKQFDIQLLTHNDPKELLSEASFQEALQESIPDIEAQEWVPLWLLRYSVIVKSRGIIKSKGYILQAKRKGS
Procedure: Rat kidney γ-Glutamylcysteine synthetase was purified from Sprague Dawley (Taconic Farms) rats (Seelig., Methods in Enzymology, 1985, 113:379-390).
The preincubation assay of γ-glutamylcysteine synthetase is given below. γ-Glutamylcysteine synthetase (4.6 units) was added to a mixture (final volume, 50 μl) containing 100 mM Tris/HCl (pH 8.2), 5 mM ATP, 20 mM MgCl2, 0.2 mM EDTA, and the sulfoximine being evaluated. After incubation at 22° C. for 30 minutes, a 45 μl aliquot of the preincubation mixture was added to the assay as follows.
γ-Glutamylcysteine synthetase was assayed as follows (Griffith et al, J. Biological Chem., 1979, 254:1205-1210). The reaction mixture (final volume, 1.0 ml) contained 100 mM Tris/HCl (pH 8.2), 120 mM KCl, 5 mM phosphoenolpyruvate, 20 mM MgCl2, 10 mM sodium L-glutamate, 10 mM L-α-aminobutyric acid, 0.2 mM EDTA, 0.4 mM NADH, pyruvate kinase (10 IU), and lactate dehydrogenase (10 IU). The reaction (37° C.) was initiated by the addition of γ-glutamylcysteine synthetase and the oxidation of NADH, equivalent to ADP formation, was recorded at 340 nm.

## CCCCS(=N)(=O)CCC(N)C(=O)O [BSO, L-S-butyl homocysteine-SR-sulfoximine]
[1]; BSO plus irradiation
  longevity: significant increase in longevity
  tumor size: significant decrease in tumor size
[1]; when irradiated, tumors in footpads of mice
  tumor glutathione content relative to untreated controls: about 20%
[2]
  reversal of resistance: reversal of resistance
[3]
  Ki: 600 nM
